Usually half-life stands for the time in which the quantity being followed falls by half.

These results are taken from ChEMBL document CHEMBL1151022, “Modified triphosphates of carbocyclic nucleoside analogues: Synthesis, stability towards alkaline phosphatase and substrate properties for some DNA polymerases” (Bioorg Med Chem Lett, 1996).

Where only a bound is given, the exact number is not on record here.

The nature of this data set: Compound was evaluated for its stability to dephosphorylation. The format is physicochemical.
The compound `Nc1ncnc2c1ncn2[C@@H]1C[C@@H](OCP(=O)(O)OP(=O)(O)O)[C@@H]2C[C@@H]21` had a half-life of 4.5 h.
The compound `Nc1nc(O)c2ncn([C@@H]3C=C[C@H](OCP(=O)(O)OP(=O)(O)C(Br)(Br)P(=O)(O)O)C3)c2n1` registered a half-life greater than 168 h.
The same measure for `Nc1ncnc2c1ncn2[C@H]1C[C@H](O)[C@@H](COP(=O)(O)OP(=O)(O)OP(=O)(O)O)O1`: 0.833 h.
To `Nc1ncnc2c1ncn2[C@H]1C[C@H](OCP(=O)(O)OP(=O)(O)O)[C@H]2C[C@H]21` belongs greater than 168 h; to `Nc1ncnc2c1ncn2[C@@H]1C[C@@H](OCP(=O)(O)CP(=O)(O)O)[C@@H]2C[C@@H]21`, greater than 168 h; to `Nc1ncnc2c1ncn2[C@H]1C[C@H](OCP(=O)(O)CP(=O)(O)O)[C@H]2C[C@H]21`, greater than 168 h.
With `Nc1ncnc2c1ncn2[C@@H]1C=C[C@H](OCP(=O)(O)OP(=O)(O)OP(=O)(O)O)C1`, the half-life is 3 h.
To `Nc1ncnc2c1ncn2[C@@H]1C=C[C@H](OCP(=O)(O)OP(=O)(O)C(Br)(Br)P(=O)(O)O)C1` belongs greater than 168 h; to `Nc1nc(O)c2ncn([C@@H]3C=C[C@H](OCP(=O)(O)OP(=O)(O)OP(=O)(O)O)C3)c2n1`, 4 h; to `Nc1ncnc2c1ncn2[C@H]1C=C[C@@H](OCP(=O)(O)OP(=O)(O)OP(=O)(O)O)C1`, 2 h.
The same measure for `Nc1nc2c(ncn2[C@H]2C[C@H](O)[C@@H](COP(=O)(O)OP(=O)(O)OP(=O)(O)O)O2)c(=O)[nH]1` [DEOXYGUANOSINE TRIPHOSPHATE]: 1 h; for `Cc1cn([C@H]2C[C@H](N=[N+]=[N-])[C@@H](CO[P@](=O)(O)O[P@](=O)(O)OP(=O)(O)O)O2)c(=O)[nH]c1=O` [ZIDOVUDINE TRIPHOSPHATE]: less than 0.0167 h.
